Assay results: ChEMBL document CHEMBL1201862, “PubChem BioAssay data set” (2004)
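Growth conditions: 96-well plates. Treatment: test compound, 48 hours, 5 concentrations. Analysis: linear interpolation between bracketing concentrations; unreached endpoints set to highest concentration. Abbreviation: GI50, concentration required for 50% inhibition of growth.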 The source made the active and inactive calls. No stated cut-off is given here; in the data, active = GI50 up to about 1.1 µM and inactive = higher.

Tests used:
Assay in all cases: growth of human tumour cells (NCI), 48 h
A549 = system: A549
RPMI-8226 = system: RPMI-8226
OVCAR-5 = system: OVCAR-5
NCI-H226 = system: NCI-H226
ACHN = system: ACHN
IGROV-1 = system: IGROV-1
M14 = system: M14
SN12C = system: SN12C
786-0 = system: 786-0
COLO 205 = system: COLO 205
SK-MEL-28 = system: SK-MEL-28
A498 = system: A498
UO-31 = system: UO-31
KM12 = system: KM12
SF-539 = system: SF-539
OVCAR-4 = system: OVCAR-4
SNB-75 = system: SNB-75
HOP-92 = system: HOP-92

Measured: GI50

Cc1ccc(NC(=O)CSc2nnc(Cc3ccccc3)o2)cc1
inactive: A549 > 100 µM | RPMI-8226 > 100 µM | OVCAR-5 > 100 µM | NCI-H226 > 100 µM | ACHN > 100 µM | IGROV-1 > 100 µM | M14 > 100 µM | SN12C > 100 µM | 786-0 > 100 µM | COLO 205 > 100 µM | SK-MEL-28 > 100 µM | A498 > 100 µM | UO-31 > 100 µM | KM12 > 100 µM | SF-539 > 100 µM | OVCAR-4 > 100 µM | SNB-75 > 100 µM

COc1cc2ccc3c4cc(OC)c(OCc5ccccc5)cc4cnc3c2cc1OC
inactive: A549 > 100 µM | RPMI-8226 61.9 µM | OVCAR-5 > 100 µM | ACHN > 100 µM | IGROV-1 > 100 µM | M14 > 100 µM | SN12C > 100 µM | 786-0 > 100 µM | COLO 205 > 100 µM | SK-MEL-28 > 100 µM | A498 > 100 µM | UO-31 70 µM | KM12 > 100 µM | OVCAR-4 > 100 µM | SNB-75 > 100 µM

CCNc1nnc(CSc2nc(-c3ccccc3)c(-c3ccccc3)[nH]2)s1
inactive: A549 28.7 µM | RPMI-8226 15.5 µM | OVCAR-5 21.4 µM | NCI-H226 13.4 µM | ACHN 23.3 µM | HOP-92 15.8 µM | M14 17.5 µM | SN12C 20.8 µM | 786-0 24.4 µM | COLO 205 19.1 µM | SK-MEL-28 14.6 µM | UO-31 14 µM | KM12 9.38 µM | SF-539 18.7 µM | OVCAR-4 30.5 µM | SNB-75 23 µM

O=C1CC(c2c(-c3ccccc3)[nH]c3ccccc23)C(=O)N1 (centres undefined)
inactive: A549 > 100 µM | RPMI-8226 > 100 µM | OVCAR-5 > 100 µM | NCI-H226 > 100 µM | ACHN > 100 µM | IGROV-1 > 100 µM | M14 > 100 µM | 786-0 > 100 µM | SK-MEL-28 > 100 µM | A498 90.2 µM | UO-31 76.6 µM | KM12 > 100 µM | SF-539 > 100 µM | OVCAR-4 > 100 µM | SNB-75 35.4 µM

Cn1c(N)[n+](C(=O)OCc2ccccc2)c(=O)c2c1ncn2C(=O)OCc1ccccc1
inactive: A549 73.1 µM | RPMI-8226 > 100 µM | OVCAR-5 > 100 µM | NCI-H226 18 µM | ACHN 24.4 µM | IGROV-1 > 100 µM | M14 50.9 µM | SN12C > 100 µM | 786-0 30.1 µM | COLO 205 > 100 µM | SK-MEL-28 > 100 µM | A498 30.8 µM | UO-31 14.4 µM | KM12 > 100 µM | OVCAR-4 65.2 µM | SNB-75 24 µM
